Patent US5095137A, “Amides of cyclomethylen-1,2-bicarboxylic acids having therapeutical activity” (Laboratori Guidotti SpA, priority 1988, dated 1992)

Legend:
[1] = test system: blood pressure increases induced by angiotensin I; experiment: Antihypertensive activity i.v. in the anaesthetized ganglion-blocked rat (inhibition of blood pressure increases induced by repeated i.v. injections of angiotensin I); format: in vivo
Method: Dose-dependent antihypertensive activity of selected compounds was calculated after intravenous administration to the anaesthetized ganglion-blocked rat. […] Half-lives (t1/2) of the antihypertensive action were also calculated and reported.

[2] = target: T1, ACE (Rattus norvegicus, UniProt P47820); experiment: ACE inhibition: hydrolysis of the ippuril-glycil-glycine artificial substrate by the ACE contained in rat serum; format: biochemical
T1 construct: by the ACE contained in the rat serum; from tissue; host or cells: rat serum
T1 sequence (P47820 36-1238 limits assumed): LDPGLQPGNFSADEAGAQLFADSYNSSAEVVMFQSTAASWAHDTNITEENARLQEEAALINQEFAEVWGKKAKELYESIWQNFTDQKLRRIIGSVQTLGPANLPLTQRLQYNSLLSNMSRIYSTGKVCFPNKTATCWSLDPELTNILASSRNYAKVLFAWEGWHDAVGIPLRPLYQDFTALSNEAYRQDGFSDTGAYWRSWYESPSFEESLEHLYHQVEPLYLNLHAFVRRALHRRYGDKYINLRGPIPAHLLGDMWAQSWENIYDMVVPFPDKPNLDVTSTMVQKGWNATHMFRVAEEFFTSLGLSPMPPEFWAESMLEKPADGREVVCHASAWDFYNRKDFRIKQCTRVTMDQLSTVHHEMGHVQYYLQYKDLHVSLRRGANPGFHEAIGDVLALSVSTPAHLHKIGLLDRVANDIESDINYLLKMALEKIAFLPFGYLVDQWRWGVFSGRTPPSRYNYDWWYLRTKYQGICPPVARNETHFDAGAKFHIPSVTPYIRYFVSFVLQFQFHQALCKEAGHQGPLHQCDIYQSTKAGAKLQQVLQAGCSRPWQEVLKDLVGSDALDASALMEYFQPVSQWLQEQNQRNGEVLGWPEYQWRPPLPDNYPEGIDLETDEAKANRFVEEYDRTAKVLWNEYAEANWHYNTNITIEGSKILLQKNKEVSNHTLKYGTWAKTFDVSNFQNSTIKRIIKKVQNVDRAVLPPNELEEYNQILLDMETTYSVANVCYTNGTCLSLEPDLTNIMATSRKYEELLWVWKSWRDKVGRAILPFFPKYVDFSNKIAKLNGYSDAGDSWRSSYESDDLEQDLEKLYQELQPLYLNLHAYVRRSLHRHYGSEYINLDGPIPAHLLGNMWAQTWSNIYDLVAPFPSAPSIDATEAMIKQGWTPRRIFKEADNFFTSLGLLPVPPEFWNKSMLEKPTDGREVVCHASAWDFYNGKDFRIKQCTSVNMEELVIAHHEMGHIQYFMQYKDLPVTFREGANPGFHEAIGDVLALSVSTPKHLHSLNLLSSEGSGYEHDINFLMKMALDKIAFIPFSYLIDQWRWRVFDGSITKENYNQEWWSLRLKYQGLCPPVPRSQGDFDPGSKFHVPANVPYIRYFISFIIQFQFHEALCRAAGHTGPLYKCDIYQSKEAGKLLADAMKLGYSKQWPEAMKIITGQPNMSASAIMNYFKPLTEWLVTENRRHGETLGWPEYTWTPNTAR
Source text: The IC50 values have been calculated by the regression analysis of the linear part of the log dose/percent inhibition curve.

[3] = test system: pressure answer to angiotensin II; experiment: Influence on the pressure answer to angiotensin II; format: in vivo; conditions: up to the dose of 1 mg kg i.v.

IC50 [2] [µM] | SMILES | also measured
0.025 | CCN(CC(=O)NO)C(=O)[C@H]1CCCC[C@H]1C(=O)O (relative stereo) [Example 26, Cis-2[[N-[2-(hydroxyamino)-2-oxoethyl]-N-ethylamino]carbonyl]cyclohexane-carboxylic acid] | 
0.135 | CN(C(=O)[C@H]1CCCC[C@H]1C(=O)O)C(CCCc1ccccc1)C(=O)NO (relative stereo) [Example 32, Cis-2[[N-[1-(3-phenylpropyl)-2-(hydroxyamino)-2-oxoethyl]-N-methylamino]carbonyl]-cyclohexanecarboxylic acid] | 
0.008 | CCN(CC(=O)NO)C(=O)[C@@H]1CCCC[C@H]1C(=O)O (relative stereo) [Example 2, Trans-2[[N-[2-(hydroxyamino)-2-oxoethyl]-N-ethylamino]carbonyl]- -cyclohexanecarboxylic acid] | Antihypertensive activity t1/2 (half-life of the antihypertensive action) [1]: 14 min
28 | O=C(NO)C(CCc1ccccc1)NC(=O)[C@H]1CCCC[C@H]1C(=O)O (relative stereo) [Example 19, Cis-2[[N-[1-(2-phenylethyl)-2-(hydroxyamino)-2-oxoethyl]amino]carbonyl]cyclohexanecarboxylic acid] | 
1.6 | O=C(CNC(=O)[C@H]1CCCC[C@H]1C(=O)O)NO (relative stereo) [Example 1] | 
10 | O=C(NO)C(CCCc1ccccc1)NC(=O)[C@H]1CCCC[C@H]1C(=O)O (relative stereo) [Example 20, Cis-2[[N-[1-(3-phenylpropyl)-2-(hydroxyamino)-2-oxoethyl]amino]carbonyl]-cyclohexanecarboxylic acid] | 
0.03 | CN(C(=O)[C@@H]1CCCC[C@H]1C(=O)O)C(Cc1ccccc1)C(=O)NO (relative stereo) [Example 30, Trans-2[[N-[1-benzyl-2-(hydroxyamino)-2-oxoethyl]-N-methylamino]carbonyl]-cyclohexanecarboxylic acid] | 
0.4 | O=C(NO)C(Cc1ccccc1)NC(=O)[C@H]1CCCC[C@H]1C(=O)O (relative stereo) [Example 18, Cis-2[[N-[1-benzyl-2-(hydroxyamino)-2-oxoethyl]amino]carbonyl]-cyclohexane carboxylic acid] | 
0.03 | CN(C(=O)[C@H]1CCCC[C@H]1C(=O)O)C(Cc1ccccc1)C(=O)NO (relative stereo) [Example 29, Cis-2[[N-[1-benzyl-2-(hydroxyamino)-2-oxoethyl]-N-methylamino]carbonyl]-cyclohexanecarboxylic acid] | 
0.02 | CN(CC(=O)NO)C(=O)[C@@H]1CCCC[C@H]1C(=O)O (relative stereo) [Example 21, Trans-2-[[N-[2-(hydroxyamino)-2-oxoethyl]-N-methylamino]carbonyl]-cyclohexanecarboxylic acid] | Antihypertensive activity t1/2 (half-life of the antihypertensive action) [1]: 15 min
0.062 | CN(C(=O)[C@H]1CCCC[C@H]1C(=O)O)C(CCc1ccccc1)C(=O)NO (stereo partly drawn) [Example 8, Cis-2[[N-[1-(2-phenylethyl)-2-(hydrxyamino)-2-oxoethyl]-N-methylamino]carbonyl]-cyclohexanecarboxylic acid] | 
3.5 | O=C(NO)C(CNC(=O)[C@H]1CCCC[C@H]1C(=O)O)Cc1ccccc1 (stereo partly shown) [Example 3] | 
0.0035 | CN(CC(=O)NO)C(=O)[C@@H]1CCCC[C@@H]1C(=O)O [Example 9, Cis-(1S,2R)-2[[N-[2-(hydroxyamino)-2-oxoethyl]-N-methylamino]carbonyl]-cyclohexanecarboxylic acid] | 
0.73 | CN(CC(=O)NO)C(=O)[C@@H]1CCC[C@H]1C(=O)O (relative stereo) [Example 6, Trans-2[[N-[2-(hydroxyamino)-2-oxoethyl]-N-methylamino]carbonyl]cyclopentanecarboxylic acid] | 
0.0076 | CCN(CC(=O)NO)C(=O)[C@@H]1CCCC[C@H]1C(=O)O [Example 7, trans-(1R,2R)-2[[N-[2-(hydroxyamino)-2-oxoethyl]N-ethylamino]carbonyl]-cyclohexanecarboxylic acid] | 
0.006 | CN(CC(=O)NO)C(=O)[C@H]1CCCC[C@H]1C(=O)O (relative stereo) [Example 4, cis-2[[N-[2-(hydroxyamino)-2-oxoethyl]-N-methylamino]carbonyl]-cyclohexanecarboxylic acid] | Antihypertensive activity t1/2 (half-life of the antihypertensive action) [1]: 15 min; influence on the pressure answer to angiotensin II [3]: has not influenced

SMILES | IC50 [2] [µM] | also measured
CC(=O)ON(C(C)=O)C(=O)CN(C)C(=O)[C@H]1CCCC[C@H]1C(=O)O (relative stereo) [Example 14, Cis-2-[[N-[2-(N'-acetoxy-N'-acetylamino)-2-oxoethyl]-N-methyl-amino]carbonyl]cyclohexanecarboxylic acid] | 0.28 | ED50 ([1]; iv, 1 min, angiotensin I-induced pressure increase, at time of maximum effect (1 min)): 1.5 mg/kg
